In US11470844B2, “Vespidae wasp repellent” (KINP CO., LTD, priority 2015, dated 2022):

Experiments:
Assay type in all cases: in vivo
[1] = system: Vespa simillima xanthoptera Cameron worker; test: Black ball nest disturbance, Experiment 1; settings: previously attacked ball
Method: The experiment was also conducted with utilizing a nest of Vespa simillima xanthoptera Cameron in Kagawa Prefecture Kinbuchi Forest Park in Takamatsu City Kagawa Prefecture on Oct. 24, 2014. Since the nest was also built in the ground, the nest could not be found except for the entrance thereof.
As the above-described Example 2(1), the nest entrance was disturbed by vibrating the black ball in contact with the nest entrance for about 10 seconds. The total number of attacking worker could not be counted, since the number of the worker which attacked to the control black ball using distilled water was much larger than that of the control in the experiment for Vespa mandarinia and the worker moved very rapidly. Thus, the video image was stopped every 30 seconds from the end of the nest entrance disturbance and the number of the worker which alighted on the hemispherical surface of the black ball for attack was counted. During 120 seconds for the experiment, the workers continued to strongly attack to the black ball as the workers constantly flew to and alighted on the black ball for attack and the worker number was not decreased. Such an attack was continued even after the end of the experiment at which the tip of the rod was moved to a place 5 m or more away from the nest, and the attack was finally not observed after about 20 minutes passed from the experiment was finished. Then, 2-phenylethanol was sprayed on the black ball to which Vespa simillima xanthoptera attacked as the test liquid example and the nest entrance was disturbed using the black ball. Although the worker which tried to come close to the black ball was observed, even the closest worker changed the direction in the air 10 to 20 cm from the surface of the black ball and flew away, and no worker which flew to and alighted on the surface of the black ball was found.

[2] = system: Vespa mandarinia worker; test: Black ball nest disturbance, Experiment 1 (ball with adsorbed alarm pheromone); settings: for total number of workers alighting on the black ball for attack: alarm pheromone adsorbed ball
Method: The experiment was conducted with utilizing a nest of Vespa mandarinia found in Kagawa Prefecture Kinbuchi Forest Park in Takamatsu City Kagawa Prefecture on Oct. 24, 2014. Since the nest was built in the ground, the nest could not be found except for the entrance thereof.
A vinyl ball of which diameter was 13 cm and which was coated with black lacquer was hung on the tip of a fishing rod having a length of 11 m. Hereinafter, the ball was abbreviated as “black ball”. After distilled water was sprayed on the entire surface, the vicinity of the nest entrance was disturbed by using the black ball. Specifically, the nest was disturbed by vibrating the black ball about 50 cm before the nest entrance in the air for about 10 seconds or vibrating the black ball in contact with the nest entrance for about 10 seconds. After the black ball was vibrated in the above-described conditions for about 10 seconds, the black ball was moved to the air of about 1 m before the nest entrance, and the behavior of the Vespa mandarinia worker against the black ball was shot and recorded for 2 minutes with a video camera. In the above condition, both of the black balls used in both conditions were attacked by the Vespa mandarinia workers and it is considered that the alarm pheromone was adsorbed on the black balls. Then, the black ball was kept away from the nest so that all the Vespa mandarinia workers were separated, 2-phenylethanol was sprayed on the entire surface, and the behavior of the workers against the black ball was similarly observed. The total number of workers alighting on the surface of the hemispherical side observable by the video image for attack during the vibration of the black ball was counted.

[3] = system: Vespa analis insularis (Fabricius) nest; test: Spraying on nest surface, philopatry and homing, Experiment 2
Source text: The inventors investigated the worker's philopatry and homing circumstance to the nest as follows. After the above-described experiment 1, benzyl alcohol was intermittently sprayed three times on the entire surface of the same nest of Vespa analis insularis (Fabricius) by using a sprayer equipped with a nozzle having a length of 1.5 m. An adult wasp on the nest surface, worker entering and leaving the nest holes and worker coming close to the nest were shot with a video camera. The experiment was started at 14:01:30 and finished at 14:10. The numbers of the adult wasp on the nest surface and in the nest were counted immediately after the experiment. The number of adult wasp in the nest was counted by inserting the whole nest in a paper bag, sealing the paper bag, and then deconstructing the nest.

[4] = system: Vespa analis insularis (Fabricius) worker; test: Black ball nest disturbance, Experiment 1
Method: The experiment was conducted with utilizing a nest of Vespa analis insularis (Fabricius) built under an awning of a private house in Iida-cho Takamatsu City on Sep. 9, 2015.
A black ball was hung on the tip of a fishing rod having a length of 11 m, and distilled water was sprayed on the entire surface of the black ball. While the surface of the nest was tapped with the tip of the fishing rod once every about 10 seconds, the worker's action against the black ball was taken and recorded with a video camera for 5 minutes. When the nest was hit, the black ball was in close proximity to the nest as the black ball was about to touch the nest, and when the nest was not hit, the black ball was kept still in the air about 50 cm away from the nest surface. The thus recorded video footage was replayed, and the number of worker which flew to and alighted on the hemisphere surface of the black ball for attack was counted. Similar experiments were conducted with respect to the black ball prepared by spraying benzyl alcohol on the entire surface of a new black ball as “Test liquid example 1” and the black ball prepared by spraying benzyl alcohol on the entire surface of the control example black ball on which alarm pheromone was adsorbed by the worker's attack as “Test liquid example 2”. In addition, a picture of the video footage 234 seconds after the start of the nest disturbance is shown as FIG. 3. FIG. 3A is an image of the control example that distilled water was used, FIG. 3B is an image of the Test liquid example 1, and FIG. 3C is an image of the Test liquid example 2.

[5] = after first spray, 14:01:30 to 14:02:20
[6] = after second spray, 14:02:20 to 14:04:30
[7] = after third spray, 14:04:30 to 14:10:00

For `OCCc1ccccc1` [2-Phenylethanol, 2-phenylethanol], the “number of worker alighted on hemispherical surface of black ball for attack” value ([1]; 30 s after disturbance) was 0, the “number of worker alighted on hemispherical surface of black ball for attack” value ([1]; 60 s after disturbance) was 0 and the “number of worker alighted on hemispherical surface of black ball for attack” value ([1]; 90 s after disturbance) was 0. The “number of worker alighted on hemispherical surface of black ball for attack” value ([1]; 120 s after disturbance) was 0, the “total number of workers alighting on the black ball for attack” value ([2]; Vibration in contact with nest entrance) was 0 and the “total number of workers alighting on the black ball for attack” value ([2]; Vibration in the air before nest entrance) was 0. For the same molecule, the “distance from the surface of the black ball at which workers changed direction and flew away” value ([2]; in vivo) was “about 10 cm”.

For `OCc1ccccc1` [Benzyl alcohol, benzyl alcohol], the “adult wasps on nest surface and in nest at the end of the experiment” value ([3]; 14:10, after three sprays) was “All of the adult wasps got away from the nest”, the Entered nest [3, 5] was 5 and the “Flew away from nest” value [3, 5] was 15. The “Flew to and alighted on nest surface and then flew away” value (“Flew to and alighted” below) [3, 5] was 1, the “Flew to and came close to nest surface and then flew away” value (from here on “Flew to and came close”) [3, 5] was 2 and the Entered nest [3, 6] was 0. The “Flew away from nest” value [3, 6] was 10, the “Flew to and alighted” value [3, 6] was 2 and the “Flew to and came close” value [3, 6] was 6. The Entered nest [3, 7] was 0, the “Flew away from nest” value [3, 7] was 2 and the “Flew to and alighted” value [3, 7] was 4. For the same molecule, the “Flew to and came close” value [3, 7] was 55, the “number of worker alighted on hemisphere surface of black ball for attack” value ([4]; 30 s, benzyl alcohol on ball with adsorbed alarm pheromone) was 0 and the “number of worker alighted on hemisphere surface of black ball for attack” value ([4]; 30 s, benzyl alcohol on new black ball) was 0. For the same molecule, the “number of worker alighted on hemisphere surface of black ball for attack” value ([4]; 60 s, benzyl alcohol on ball with adsorbed alarm pheromone) was 1, the “number of worker alighted on hemisphere surface of black ball for attack” value ([4]; 60 s, benzyl alcohol on new black ball) was 0 and the “number of worker alighted on hemisphere surface of black ball for attack” value ([4]; 90 s, benzyl alcohol on ball with adsorbed alarm pheromone) was 0. For the same molecule, the “number of worker alighted on hemisphere surface of black ball for attack” value ([4]; 90 s, benzyl alcohol on new black ball) was 2, the “number of worker alighted on hemisphere surface of black ball for attack” value ([4]; 120 s, benzyl alcohol on ball with adsorbed alarm pheromone) was 0 and the “number of worker alighted on hemisphere surface of black ball for attack” value ([4]; 120 s, benzyl alcohol on new black ball) was 1. The “number of worker alighted on hemisphere surface of black ball for attack” value ([4]; 150 s, benzyl alcohol on ball with adsorbed alarm pheromone) was 0, the “number of worker alighted on hemisphere surface of black ball for attack” value ([4]; 150 s, benzyl alcohol on new black ball) was 0 and the “number of worker alighted on hemisphere surface of black ball for attack” value ([4]; 180 s, benzyl alcohol on ball with adsorbed alarm pheromone) was 0. The “number of worker alighted on hemisphere surface of black ball for attack” value ([4]; 180 s, benzyl alcohol on new black ball) was 0, the “number of worker alighted on hemisphere surface of black ball for attack” value ([4]; 210 s, benzyl alcohol on ball with adsorbed alarm pheromone) was 0 and the “number of worker alighted on hemisphere surface of black ball for attack” value ([4]; 210 s, benzyl alcohol on new black ball) was 0. The “number of worker alighted on hemisphere surface of black ball for attack” value ([4]; 240 s, benzyl alcohol on ball with adsorbed alarm pheromone) was 0, the “number of worker alighted on hemisphere surface of black ball for attack” value ([4]; 240 s, benzyl alcohol on new black ball) was 0 and the “number of worker alighted on hemisphere surface of black ball for attack” value ([4]; 270 s, benzyl alcohol on ball with adsorbed alarm pheromone) was 0. The “number of worker alighted on hemisphere surface of black ball for attack” value ([4]; 270 s, benzyl alcohol on new black ball) was 0, the “number of worker alighted on hemisphere surface of black ball for attack” value ([4]; 300 s, benzyl alcohol on ball with adsorbed alarm pheromone) was 0 and the “number of worker alighted on hemisphere surface of black ball for attack” value ([4]; 300 s, benzyl alcohol on new black ball) was 0. For the same molecule, the repellent effect ([4]; in vivo) was “strong repellent effect”.
